From patent US20160145202A1 (priority 2013, published 2016)

Tested on: Septoria tritici
Experiment: Glass house trial: control of leaf blotch on wheat caused by Septoria tritici (SEPTTR_P1)
Type: in vivo
Conditions: 300 ppm, protective P1, wheat seedlings sprayed to run-off, visually assessed after 4 weeks
Protocol: The spray solutions were prepared in several steps:
The stock solution was prepared as follows: 0.84 ml of a 1:1 mixture of cyclohexanone and dimethylsulfoxide was added to 16.8 mg of active ingredient. Next, 27.16 ml of a mixture of water, acetone (10%), the emulsifier Wettol (0.1%) and the wetting agent Silwet (0.05%) was added.
This stock solution was then further diluted with the described solvent-emulsifier-water mixture to the desired concentrations. Two different compound applications were used: “protective, P1” and “curative, K1”, where the first means that the compound solution is applied a day before the fungus while the latter represents the opposite ordering.
Control of Leaf Blotch on Wheat Caused by Septoria tritici (SEPTTR_P1)
Leaves of pot-grown wheat seedling were sprayed to run-off with an aqueous suspension of F-1 (300 ppm), prepared as described. The plants were allowed to air-dry. At the following day the plants were inoculated with an aqueous spore suspension of Septoria tritici. Then the trial plants were immediately transferred to a humid chamber at 18-22° C. and a relative humidity close to 100%. After 4 days the plants were transferred to a chamber with 18-22° C. and a relative humidity close to 70%.

## CNC(=O)OCc1cc(/C(C)=N/OCc2cccc(C)n2)ccc1Cl [F-1, [2-chloro-5-[(E)-C-methyl-N-[(6-methyl-2-pyridyl)methoxy]carbonimidoyl]phenyl]methyl N-methylcarbamate]
  extent of fungal attack on the leaves (infection compared to untreated plants): ≤ 30%
